# Assay results reported in US10441566B2, “Use of butylidenephthalide” (EVERFRONT BIOTECH INC., priority 2016, dated 2019).
# Tests used:
# Format in all cases: cell-based
# [1] = test system: buccal mucosal fibroblasts (BMFs; BMF-1, BMF-2); experiment: MTT cytotoxicity evaluation, relative viability of buccal mucosal fibroblasts; details: BP at a concentration of no more than 50 μg/mL, 48 hours, FIG. 1
# Description: (§1) Two groups of buccal mucosal fibroblasts obtained from normal oral buccal mucosa (hereinafter abbreviated as “BMF-1” and “BMF-2”; or collectively called “BMFs”), and two groups of fibrotic buccal mucosal fibroblasts obtained from fibrotic oral buccal mucosa (hereinafter abbreviated as “fBMF-1” and “fBMF-2”; or collectively called “fBMFs”) were respectively subjected to the following procedures: seeding the cells into a 24-well plate by a concentration of 2×10^4 cells/well to cultivate the cells to reach a 80% confluence, and then respectively treating the cells with different concentrations (0, 12.5, 25, 50, 100, or 200 μg/mL) of butylidenephthalide (BP) for 48 hours. […]
# [2] = test system: fibrotic buccal mucosal fibroblasts (fBMFs; fBMF-1, fBMF-2); experiment: MTT cytotoxicity evaluation, relative viability of fibrotic buccal mucosal fibroblasts; details: BP at a concentration of no more than 50 μg/mL, 48 hours, FIG. 1
# Description: as §1
# Twist gene = experiment: Q-PCR expression of EMT marker gene Twist in fBMFs; details: fBMF-1 and fBMF-2, BP 0, 25, or 50 μg/mL, 48 hours, with the increment in concentration, FIG. 2
# Description: as §1
# (§2) It is known that during the process of epithelial-mesenchymal transition (EMT), the expressions of Twist gene, Snail gene, and ZEB1 gene in the cells will increase, and thus, these genes are known as the marker genes of EMT. In this experiment, quantitative real-time polymerase chain reaction (Q-PCR) was conducted to investigate whether butylidenephthalide (BP) can affect the expressions of Twist gene, Snail gene, and ZEB1 gene in oral submucosal tissue cells. […]
# Snail gene = experiment: Q-PCR expression of EMT marker gene Snail in fBMFs; details: fBMF-1 and fBMF-2, BP 0, 25, or 50 μg/mL, 48 hours, with the increment in concentration, FIG. 2
# Description: as §1, §2
# ZEB1 gene = experiment: Q-PCR expression of EMT marker gene ZEB1 in fBMFs; details: fBMF-1 and fBMF-2, BP 0, 25, or 50 μg/mL, 48 hours, with the increment in concentration, FIG. 2
# Description: as §1, §2
# [3] = test system: fibrotic buccal mucosal fibroblasts (fBMFs); experiment: Transwell cell migration assay; details: BP 0, 25, or 50 μg/mL, 24 hours migration, FIGS. 3A and 3B
# Procedure: In this experiment, a transwell cell migration assay system (Transwell® system; purchased from Corning company, UK) and a polycarbonate membrane with a pore size of 8 μm (purchased from Corning company, UK) were used to further investigate whether butylidenephthalide (BP) can inhibit the abilities of oral submucosal tissue cells to crawl and invade.
# First, the cell medium containing 10% FBS (fetal bovine serum) was added into the lower chamber, and an apparatus of polycarbonate membrane was placed on the bottom of a cell culture plate, i.e., upper chamber. On the other hand, the BMF-1, BMF-2, fBMF-1, and fBMF-2 provided by [Preparation example A] (2×10^4 cells/group) were evenly mixed with a 250 μL serum-free medium that is externally added with butylidenephthalide (BP) by a concentration of 0, 25, or 50 μg/mL. Then, the mixtures thus obtained were respectively added into the upper chambers. Thereafter, the whole transwell cell migration assay system was placed in an incubator to induce cell migration for 24 hours. […] Then, the polycarbonate membrane were fixed with 4% paraformaldehyde for 10 minutes and stained with 0.1% crystal violet. […] The cell numbers on the membrane were calculated into the relative cell migration ability (%) by using the results of BMFs not treated with butylidenephthalide (BP) as a basis.
# α-SMA gene = experiment: Q-PCR expression of myofibroblast marker gene α-SMA in fBMFs; details: fBMF-1 and fBMF-2, BP 0, 25, or 50 μg/mL, 48 hours, with the increment in concentration, FIG. 4
# Description: as §1
# (§3) It is known that during the process of the fibrosis of tissue, the tissue cells would differentiate and become myofibroblasts, wherein the α-SMA gene, Col1a1 gene, and S100A4 gene are the maker genes of myofibroblasts. Thus, in this experiment, a quantitative real-time polymerase chain reaction (Q-PCR) was conducted to investigate whether butylidenephthalide (BP) can inhibit the expressions of α-SMA gene, Col1a1 gene, and S100A4 gene in oral submucosal tissue cells. […]
# Col1a1 gene = experiment: Q-PCR expression of myofibroblast marker gene Col1a1 in fBMFs; details: fBMF-1 and fBMF-2, BP 0, 25, or 50 μg/mL, 48 hours, with the increment in concentration, FIG. 4
# Description: as §1, §3
# S100A4 gene = experiment: Q-PCR expression of myofibroblast marker gene S100A4 in fBMFs; details: fBMF-1 and fBMF-2, BP 0, 25, or 50 μg/mL, 48 hours, with the increment in concentration, FIG. 4
# Description: as §1, §3
# [4] = test system: fibrotic buccal mucosal fibroblasts (fBMFs); experiment: Collagen gel contraction assay; details: fBMFs in collagen gel, BP 0, 25, or 50 μg/mL, 48 hours, with the increment in concentration, FIGS. 5A and 5B
# Procedure: The BMF-1, BMF-2, fBMF-1, and fBMF-2 provided by [Preparation example A] were respectively dissolved in 0.5 mL of 2 mg/mL collagen solution (purchased from Sigma-Aldrich), and the mixtures thus obtained were moved into a 24-well plate. Then, the 24-well plate was placed in an incubator at […] and 5% CO2 for 2 hours to coagulate the collagen gels. The gels thus obtained were respectively called “BMFs group”, and “fBMFs group” gels. Thereafter, the coagulated gels were disengaged from the culture plate, and 0.5 mL of a medium containing different concentrations (0, 25, or 50 μg/mL) of butylidenephthalide (BP) was added thereinto to incubate with the gels for 48 hours. The contraction of gel in each group were observed and photographed. Finally, the relative gel area (%) of each “fBMFs group” was calculated by using the image-analyzed software, ImageJ (National Institutes of Health, USA) and using the results of “BMFs group” not being treated with butylidenephthalide (BP) as a basis.
compound,measurement,setting,value
CCCC=C1OC(=O)c2ccccc21 [butylidenephthalide],growth (relative viability) of BMFs,[1],will not be affected
same,growth (relative viability) of fBMFs,[2],will not be affected
same,expression of Twist gene,Twist gene,significantly decreased
same,expression of Snail gene,Snail gene,significantly decreased
same,expression of ZEB1 gene,ZEB1 gene,significantly decreased
same,cells which migrated from the upper chamber to the lower chamber (relative migration ability),[3],decrease with the increment in the concentration
same,expression of α-SMA gene,α-SMA gene,significantly decreased
same,expression of Col1a1 gene,Col1a1 gene,significantly decreased
same,expression of S100A4 gene,S100A4 gene,significantly decreased
same,gel contraction (relative gel area),[4],significantly mitigate
